From patent publication EP4474016A1, “STRATEGIES TO TARGET EXTRACELLULARLY ACCESSIBLE RAS PROTEIN” (Julius-Maximilians-Universität Würzburg, priority 2023, dated 2024) come the findings set out here.

Assay [1] relates to human acute monocytic leukemia cell line MV4-11. The assay is described as follows: in vitro killing assay of anti-Ras bispecific antibody alone or in combination with DMSO (luciferase read-out). As to conditions: alone, read-out: viability drop of MV4-11 cells. Format: cell-based. As to the method: (§1) The anti-Ras bispecific antibody constructs SFV02_PCC06 (SEQ ID No 75 + 76) was tested in cell culture against the human Multiple Myeloma cell lines MM.1S and the human acute monocytic leukemia cell line MV4-11. The MM. 1S and MV4-11 cells are luziferase positive and were seeded into 96-well cell culture plates (for each cell line 7500 cells in 50 µL per well in 150 µL medium) in the corresponding medium (Table 1) and incubated at 37°C and 5% CO2 for 24 hours. The next day, fresh human CD3+/CD8+ T-cells were added to each well, for a final tumour cell to T cells ratio of 1 to 5. Two dilution series were prepared of the SFV02_PCC06 antibody: (i) A final concentration of 25 nM, 12.5 nM, 6.25 nM and 3.125 nM (Figure 15), and (ii) a final concentration of 15 nM, 7.5 nM, 3.75 nM, 1.87 nM, 0.93 nM, 0.46 nM, 0.23 nM and 0.11 nM (Figure 16). From the antibody dilution series, 20 µL was added to each respective well.
(§2) To test if chemical compounds can improve and/or increase the bi-specific anti Ras antibody directed killing of tumours cells, two compounds were tested. […] Afterwards, the bioluminescence of the firefly-luciferase was measured, using a Tecan Spark plate reader (with an absorbance scan from 350 nm to 700 nm with an integration time interval of 1000 ms).

Assay [2] concerns aberrant expressed Ras on the cell surface. Description: cell-based ELISA of aberrant Ras protein on the cell surface under normal and stress conditions. Further details: species or system human. As to conditions: versus complete medium; for aberrant Ras expression on the cell surface: Lenalidomide 1.5µM overnight. The procedure: For the cell-based ELISA, different adherent cell lines (AsPC-1, Panc-1, SK-BR-3 and BT-474) were used. First, the cell culture medium was removed, and the cells were washed one time with PBS. After washing, 2 ml of […] Trypsin-EDTA (Gibco, #25300054) was added to trypsinise the cells for 3 min at 37°C. Then, 13 ml of complete medium (Table 1) was added to stop the trypsinisation process. Cell numbers were count via Trypan Blue staining and 30.000 viable cells in 50 µl were seeded out per well, in a 96-well tissue culture plate at 37°C and 5% CO2. After overnight adhesion of the cells, three different mechanisms to induce cellular stress on the tumour cells were tested: (i) addition of 0,5% DMSO in the cell culture medium, (ii) adding 1,5 µM Lenalidomide in the cell culture medium, (iii) or replacement of the complete medium by cell culture medium without supplemented FBS for serum-starvation. As normal control, for cells not under additional cellular stress, cells were left in complete medium. The stress-induction was performed overnight at 37°C and 5% CO2. The next day, to reduce unspecific binding of detection antibody to the plastic of the cell culture plate, each well was filled up to the top with 50% FBS in PBS, carefully pipette on top of the incubation medium, and incubated for 30 minutes at 37°C. Then, the all medium was discarded from the wells and 50 µl of 1:100-diluted FcR Blocking Reagent (MACS Miltenyi #130-059-901) was added to each well to avoid unspecific binding by blocking of the Fc-Receptors on the tumour cells. […]
The HRP-reaction was stopped after sufficient colour development by adding 50 µl of stop solution (1 N Sulfuric Acid) to each well. Finally, the absorbance was measured in each well at a wavelength of 450 nm and a reference wavelength of 630 nm with a Tecan SPARK® multimode-mikroplate-reader. The absorbance values from the unspecific HRP-labelled control samples (samples without primary antibody but with corresponding HRP labelled secondary antibody), were used for the zero baseline model and set at 0 (Figure 19 and 20).

For assay [3], the system named is human Multiple Myeloma cell lines MM.1S. The assay is described as follows: in vitro killing assay of anti-Ras bispecific antibody alone or in combination with Lenalidomide (luciferase read-out). The format is cell-based. As to conditions: MM1.S, Lenalidomide 1.5 µM alone, compared to the cells without Lenalidomide. As to the method: as §1, §2

For the molecule `C[S+](C)[O-]` [DMSO, Dimethyl Sulfoxide], the viability drop at 70.4 µM in assay [1] is 30%. Moreover, in assay [2] (the four solid tumour cells (AsPC-1, Panc-1, MS-18, SK-BR-3), DMSO 0.5% (v/v)), the “aberrant Ras protein on the cell surface” value is listed as “down-regulating”.

`Nc1cccc2c1CN(C1CCC(=O)NC1=O)C2=O` (centres unmarked) [Lenalidomide]: the percent drop in cell viability at 1.5 µM in assay [3] came out at 25%. Also, the “aberrant Ras expression on the cell surface” value in assay [2] (AsPc-1 cells) and in assay [2] (SK-BR-3 cells) was “up-regulating” each time.
